The values below come from US20100311592A1, “USE OF 2-IODO-N 4-METHOXY-6-METHYL-1,3,5-TRIAZINE-2-YL CARBAMOYL BENZENESULFONAMIDE AND/OR SALTS THEREOF FOR COMBATING UNDESIRED PLANT GROWTH IN SELECTED USEFUL PLANT CROPS OR NON-CULTIVATED LAND” (Bayer CropScience AG, priority 2007, published 2010).

The structures appear in SMILES notation.

Holding throughout (format): in vivo
The subject of data set [1] is Stellaria media. Description: Post-emergence action against weeds. Particulars: post-emergence method, application rate of 0.1 kg or less of active substance per hectare, visual scoring after about 3 to 4 weeks. How it is done: (§1) Seeds or rhizome pieces of monocotyledonous and dicotyledonous weeds were placed in sandy loam in plastic pots, covered with soil and cultivated in a greenhouse under good growth conditions. Three weeks after sowing, the test plants were treated at the three-leaf stage.

The test system of data set [2] is Lolium multiflorum. Description: Post-emergence action against weeds. Particulars: post-emergence method, application rate of 0.1 kg or less of active substance per hectare, visual scoring after about 3 to 4 weeks. The procedure: as §1
For data set [3], the system named is Matricaria inodora. Description: Post-emergence action against weeds. Particulars: post-emergence method, application rate of 0.1 kg or less of active substance per hectare, visual scoring after about 3 to 4 weeks. How it is done: as §1
The subject of data set [4] is Abuthilon theophrasti. Description: Post-emergence action against weeds. Particulars: post-emergence method, application rate of 0.1 kg or less of active substance per hectare, visual scoring after about 3 to 4 weeks. The procedure: as §1
The test system of data set [5] is Viola tricolor. Description: Post-emergence action against weeds. Particulars: post-emergence method, application rate of 0.1 kg or less of active substance per hectare, visual scoring after about 3 to 4 weeks. The procedure:
as §1

Data set [6] deals with Amaranthus retroflexus. Description: Post-emergence action against weeds. Particulars: post-emergence method, application rate of 0.1 kg or less of active substance per hectare, visual scoring after about 3 to 4 weeks. The procedure: as §1
Data set [7] deals with Veronica persica. Description: Post-emergence action against weeds. Particulars: post-emergence method, application rate of 0.1 kg or less of active substance per hectare, visual scoring after about 3 to 4 weeks. How it is done:
as §1

Data set [8] concerns Ipomoea purpurea. Description: Post-emergence action against weeds. Particulars: post-emergence method, application rate of 0.1 kg or less of active substance per hectare, visual scoring after about 3 to 4 weeks. The procedure: as §1
Data set [9] relates to barley. Description: Compatibility with crop plants. Particulars: pre- or post-emergence treatment in the greenhouse; visual scoring four to five weeks after application; even at relatively high application rates. The source says:
In further tests in the greenhouse, seeds of a relatively large number of crop plants and weeds were placed in sandy loam and covered with soil. Some of the pots were immediately treated as described in section 1, the others were placed in the greenhouse until the plants had developed two to three true leaves and were then sprayed with 2-iodo-N-[(4-methoxy-6-methyl-1,3,5-triazin-2-yl)carbamoyl]benzenesulfonamide and also, for example, the compounds Nos. I-1, I-2, I-3, I-4, I-12, I-18 and 1-19 from Table 1, as described in section 2.

Data set [10] deals with Stellaria media. Description: Pre-emergence herbicidal activity. Particulars: pre-emergence method, application rate of 0.1 kg or less of active substance per hectare, visual scoring after 3 to 4 weeks. The source says:
(§2) Seeds or rhizome pieces of mono- and dicotyledonous weeds were placed in sandy loam in cardboard pots and covered with soil. The compounds according to the invention, formulated in the form of wettable powders or emulsion concentrates, were then applied to the surface of the covering soil in the form of aqueous suspensions or emulsions at an application rate of 100 to 8001 of water/ha (converted), at various dosages.
(§3) After the treatment, the pots were placed in a greenhouse and kept under good growth conditions for the weeds. Visual scoring of the damage to the plants or the emergence damage was carried out after the emergence of the test plants after a test period of 3 to 4 weeks, by comparison with untreated controls. As shown by the results, the compounds according to the invention have good herbicidal pre-emergence activity against a broad spectrum of weed grasses and broad-leaved weeds.

Data set [11] has as its system Lolium multiflorum. Description: Pre-emergence herbicidal activity. Particulars: pre-emergence method, application rate of 0.1 kg or less of active substance per hectare, visual scoring after 3 to 4 weeks.
Excerpt: as §2, §3

The test system of data set [12] is Matricaria inodora. Description: Pre-emergence herbicidal activity. Particulars: pre-emergence method, application rate of 0.1 kg or less of active substance per hectare, visual scoring after 3 to 4 weeks.
Excerpt: as §2, §3

Data set [13] deals with Viola tricolor. Description: Pre-emergence herbicidal activity. Particulars: pre-emergence method, application rate of 0.1 kg or less of active substance per hectare, visual scoring after 3 to 4 weeks.
Excerpt: as §2, §3

The subject of data set [14] is Papaver rhoeas. Description: Pre-emergence herbicidal activity. Particulars: pre-emergence method, application rate of 0.1 kg or less of active substance per hectare, visual scoring after 3 to 4 weeks.
Excerpt: as §2, §3

As for `CCCC[N+](CCCC)(CCCC)CCCC.COc1nc(C)nc(NC(=O)[N-]S(=O)(=O)c2ccccc2I)n1` [Compound I-18], the herbicidal activity result in data set [1], in data set [2], in data set [3], in data set [4], in data set [5] and in [6] was “very good herbicidal activity” each time. Further, the herbicidal activity result in data set [7], in [8], in [10], in [11], in data set [12] and in [13] was “very good herbicidal activity” each time. Moreover, the herbicidal activity result in data set [14] was “very good herbicidal activity”. For the same compound, the damage to barley result in [9] was “did not damage barley at all or left only marginal traces of damage”.
For `CC[N+](CC)(CC)CC.COc1nc(C)nc(NC(=O)[N-]S(=O)(=O)c2ccccc2I)n1` [Compound I-12], the herbicidal activity entry in data set [1], in [2], in [3], in [4], in data set [5] and in data set [6] was “very good herbicidal activity” throughout. Further, the herbicidal activity result in data set [7], in data set [8], in data set [10], in data set [11], in data set [12] and in data set [13] was “very good herbicidal activity” throughout. In addition, the herbicidal activity entry in data set [14] is given as “very good herbicidal activity”. For the same compound, in data set [9], the damage to barley entry is given as “did not damage barley at all or left only marginal traces of damage”.
Turning to `COc1nc(C)nc(NC(=O)NS(=O)(=O)c2ccccc2I)n1` [2-iodo-N-[(4-methoxy-6-methyl-1,3,5-triazin-2-yl)carbamoyl]benzenesulfonamide], the herbicidal activity entry in [1], in data set [2], in [3], in data set [4], in [5] and in data set [6] was “very good herbicidal activity” each time. In addition, the herbicidal activity result in data set [7], in data set [8], in data set [10], in data set [11], in [12] and in [13] was “very good herbicidal activity” in each case. Further, the herbicidal activity entry in [14] was “very good herbicidal activity”. Besides, the damage to barley entry in [9] is listed as “did not damage barley at all or left only marginal traces of damage”.
